Measurements as given in BindingDB's records for patent US12187709 (Genentech, 2025).
pIC50, pKd: −log10 of the molar value.

Tests used:
[1] = target: T1, E3 ubiquitin-protein ligase CBL (Homo sapiens, UniProt P22681); assay: Cbl-b and C-Cbl LCK Ub TR-FRET Assay
Procedure: 6 μL of detection mixture was added to all wells and briefly centrifuged before incubating for 20 min at room temperature. […] IC50 was generated using no LCK as the low control and DMSO as the high control.

[2] = target: T1, E3 ubiquitin-protein ligase CBL; assay: Multi-Point Chaser SPR Assay Variation
Procedure: (§1) Table 4: Chaser assay utilize a single cycle kinetics SPR experiment with a contact time of 120 seconds, a flow rate of 50 μl/min and a dissociation time of 450 seconds. […] The kd is measured independently by determining the percentage unoccupied compound binding site over time by measuring the binding of a chaser compound measured by SPR.Chaser binding was measured by a multicycle kinetics SPR experiment using a contact time of 20 seconds, a flow rate of 30 μl/min, and a dissociation time of 120 seconds. […] The % compound bound at a given time was determined by comparison to a single injection of chaser preceding the single cycle kinetics titration defined below.% Compound Bound=(1−(RUT/RUT0))*100

[3] = target: E3 ubiquitin-protein ligase CBL-B (Homo sapiens, UniProt Q13191); assay: Multi-Point Chaser SPR Assay Variation
Procedure: as §1

Chain of E3 ubiquitin-protein ligase CBL-B (Q13191 whole entry): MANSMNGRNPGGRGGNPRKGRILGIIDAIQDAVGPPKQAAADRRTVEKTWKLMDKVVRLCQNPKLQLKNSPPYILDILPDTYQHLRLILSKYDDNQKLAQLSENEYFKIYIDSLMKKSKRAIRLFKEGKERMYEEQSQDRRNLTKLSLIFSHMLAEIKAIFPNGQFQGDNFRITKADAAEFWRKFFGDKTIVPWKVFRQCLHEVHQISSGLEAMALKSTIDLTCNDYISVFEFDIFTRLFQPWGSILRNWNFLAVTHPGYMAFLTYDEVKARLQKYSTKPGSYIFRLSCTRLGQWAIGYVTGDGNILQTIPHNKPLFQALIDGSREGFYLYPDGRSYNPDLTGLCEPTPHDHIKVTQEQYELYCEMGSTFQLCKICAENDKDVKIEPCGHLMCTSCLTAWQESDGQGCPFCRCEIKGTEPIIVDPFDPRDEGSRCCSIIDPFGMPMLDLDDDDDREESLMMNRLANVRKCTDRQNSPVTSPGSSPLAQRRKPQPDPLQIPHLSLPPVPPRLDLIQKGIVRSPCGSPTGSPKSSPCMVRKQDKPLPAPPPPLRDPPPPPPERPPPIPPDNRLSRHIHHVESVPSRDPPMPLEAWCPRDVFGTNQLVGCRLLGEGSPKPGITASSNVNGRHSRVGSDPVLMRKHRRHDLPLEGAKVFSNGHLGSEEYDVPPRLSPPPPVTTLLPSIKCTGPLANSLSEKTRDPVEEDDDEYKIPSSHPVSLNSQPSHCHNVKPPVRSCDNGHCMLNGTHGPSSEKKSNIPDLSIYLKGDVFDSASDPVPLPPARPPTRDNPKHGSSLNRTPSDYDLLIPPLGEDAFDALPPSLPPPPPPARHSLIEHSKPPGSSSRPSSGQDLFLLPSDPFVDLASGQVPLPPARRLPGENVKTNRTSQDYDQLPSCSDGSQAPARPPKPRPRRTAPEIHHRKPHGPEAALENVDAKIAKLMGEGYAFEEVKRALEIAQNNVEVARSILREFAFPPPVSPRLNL

Row | Compound | pIC50 [1] | pKd [2] | pKd [3]
1 | CO[C@@](c1cccc(N2Cc3c(cc(CNC4(C)CCC4)cc3C(F)(F)F)C2=O)c1)(c1nncn1C)C1CCC1 (single isomer, unassigned) [US12187709, Compound 118] | ≤ 4.70 | – | –
2 | Cn1cnnc1[C@]1(c2cc(NC3CCCCC3)nc(N3Cc4c(cc(CNC5(C)CCC5)cc4C(F)(F)F)C3=O)c2)C[C@@H](C)C1 [US12187709, Compound 50] | 7.28 | 7.70 | 8.19
3 | Cn1cnnc1[C@]1(c2cc(NC3CCCCC3)nc(N3Cc4c(cc(CNC5(C)CCC5)cc4C(F)(F)F)C3=O)c2)C[C@H](C)C1 [US12187709, Compound 51] | 7.21 | – | –
4 | Cn1cnnc1[C@]1(c2cc(NC3CCCC3)nc(N3Cc4c(cc(CNC5(C)CCC5)cc4C(F)(F)F)C3=O)c2)C[C@@H](C)C1 [US12187709, Compound 52] | 8.03 | 7.96 | 9.02
5 | Cn1cnnc1[C@]1(c2cc(NC3CCCC3)nc(N3Cc4c(cc(CNC5(C)CCC5)cc4C(F)(F)F)C3=O)c2)C[C@H](C)C1 [US12187709, Compound 53] | 8.20 | 8.19 | 9.15
6 | Cn1cnnc1[C@]1(c2cc(OC3CCCC3)nc(N3Cc4c(cc(CNC5(C)CCC5)cc4C(F)(F)F)C3=O)c2)C[C@H](C)C1 [US12187709, Compound 54] | 6.94 | 7.82 | 8.89
7 | Cn1cnnc1[C@]1(c2cc(OC3CCCC3)nc(N3Cc4c(cc(CNC5(C)CCC5)cc4C(F)(F)F)C3=O)c2)C[C@@H](C)C1 [US12187709, Compound 55] | 8.03 | – | –
8 | CC(=O)N1CC(c2cccc(N3Cc4c(cc(CNC5(C)CCC5)cc4C(F)(F)F)C3=O)c2)(c2nncn2C)C1 [US12187709, Compound 112] | ≤ 4.70 | – | –
